Results from patent US6350476B1, “Herbal chinese joint complex” (Shanxi Zhengzhon Pharmaceutical Co., Ltd., priority 2000, dated 2002).

What was measured:
[1] = tested on: carrageenin-induced edematous footpad in mice; experiment: Animal Study 3: carrageenin-induced edematous footpad; assay type: in vivo; details: 0.15 g/kg gastrogavage once a day for 8 days
Protocol: (§1) The compositions used in these experiments were prepared by the Pharmaceutical Preparation Room of Taiyuan Rheumatoid Arthritis Hospital using the procedures outlined above. Distilled water was added to prepare a suspension of the density required for the tests.
(§2) Aspirin (99.6%) was manufactured by Nanjing Pharmacy. A 10% of gum acacia solution was added to prepare a suspension of the density required for the test.
(§3) Distilled water was used for the control groups.
This test was conducted according to the procedure established by Xu-Shu-Yun, Methodology of the Pharmacologic Experiments, The People's Public Health Publishing House, 717 (1991). Male mice were randomly assigned to one of four groups of ten mice each, each group weighing 22.5±2.1 g. Each group of mice was fed either water (control), aspirin (0.15 g/kg of body weight), or the composition disclosed in U.S. Pat. No. 5,908,628 (either 1.5 g or 3.0 g/kg of body weight) by means of gastrogavage, once a day for 8 days. On the eighth day, 1 hour after the gastrogavage, 0.1 ml of a 1.0% carrageenin solution was hypodermically injected into the right ankle joint. Using a volumometer, the volumes of the paw and ankle joints were measured 0.5, 1, 2, 3 and 4 hours after inflammation and the values were used to calculate a swelling value.

[2] = tested on: inflammation of primary arthritis caused by injection of Freund's complete adjuvant (rat hind paw); experiment: Animal Study 1: primary arthritis caused by Freund's complete adjuvant, treatment before injection; assay type: in vivo; details: rats, 0.15 g/kg gastrogavage once a day for 3 days
Protocol: as §1, §2, §3
Male rats were randomly divided into four groups of ten rats each, with the total weight of each group being 172.5±8.0 g. The perimeters of the rat hind paws were measured. Each group of rats was fed either water (control), aspirin (0.15 g/kg of body weight), or the composition disclosed in U.S. Pat. No. 5,908,628 (either 1.5 g or 3.0 g/kg of body weight) by means of gastrogavage, once a day for 3 days. On the third day, 1 hour after the gastrogavage, 0.1 ml of Freund's complete adjuvant was intradermally injected into each rat's right hind paw to induce inflammation. The perimeters of the left and right hind paws were measured 2, 4, 6, 24, 48 and 72 hours after inflammation.

[3] = tested on: increased capillary permeability induced by I.P. 0.7 acetic acid in mice; experiment: Animal Study 5: capillary permeability induced by glacial acetic acid; assay type: in vivo; details: 0.15 g/kg gastrogavage, 20 minutes after injection
Protocol: as §1, §2, §3
This test was conducted according to the procedure established by Chen Qi, The People's Public Health House, 303 (1993). Mice were randomly assigned to one of 4 groups, each group having a total weight of 21.8±1.9 g and consisting of 5 male and 5 female mice each. Each group of mice was fed either water (control), aspirin (0.15 g/kg of body weight), or the composition disclosed in U.S. Pat. No. 5,908,628 (either 1.5 g or 3.0 g/kg of body weight) by means of gastrogavage. One hour after the gastrogavage, a solution consisting of 0.5% Evans blue and (I.P.) 0.7% glacial acetic acid 0.1 m/10 g (body weight) was hypodermically injected into the mice. I.P. densitometry values were collected 20 minutes after the injection.

[4] = tested on: inflammation of primary arthritis caused by injection of Freund's complete adjuvant (rat hind paw); experiment: Animal Study 2: primary arthritis caused by Freund's complete adjuvant, treatment one week after injection; assay type: in vivo; details: rats
Protocol: as §1, §2, §3
Male rats were randomly divided into four groups of ten rats each, with the total weight of each group being 172.5±8.0 g. The perimeters of the left and right rat hind paws were measured. 0.1 ml of Freund's complete adjuvant was intradermally injected into each rat's right hind paw to induce inflammation. One week after injection of Freund's complete adjuvant, each group of rats was fed either water (control), aspirin (0.15 g/kg of body weight), or the composition disclosed in U.S. Pat. No. 5,908,628 (either 1.5 g or 3.0 g/kg of body weight) by means of gastrogavage. The hind paws were observed and measured 1, 4 and 7 days after receiving treatments of either water, aspirin or the composition disclosed in U.S. Pat. No. 5,908,628. Results of the treatments were determined by measuring the degree of swelling of the injected versus non-injected hind paws, changes in body weight, the number of tubercles, and an overall visual score of the difference between the injected and non-injected paws. The visual score included observations on erythema of the ears and the swelling of the hind paws, ankle joints, and paw joints.

[5] = tested on: hyperplasia of connective tissues (granulomatosis); experiment: Animal Study 6: granulomatosis induced by Cotton Pallet Method; assay type: in vivo; details: rats; 0.1 g/kg gastrogavage once daily for 8 days
Protocol: as §1, §2, §3
This test was conducted according to the procedure established by the Medication Dept. of the Public Health Ministry (Collection of Guiding Principles on Western Medicine's Pre-Clinical Research, 271 (1993)). Rats were randomly assigned to one of 4 groups, each group consisting of 8 rats with a total weight 157.8±9.0 g. The rats in each group were anesthetized, tiny incisions were cut on the left and right groins, and 10 mg of sterilized cotton was placed inside each cut. […] On the day following the last gastrogavage, the cotton and any granuloma deposits thereon were removed from the incisions, dried at a temperature of 60° C. for 12 hours, after which they were individually weighed. The weight of the granuloma deposits was calculated by subtracting […] (i.e., 10 mg). […] The Inhibitory Ratio is calculated as follows: […]

[6] = tested on: fever caused by yeast injection; experiment: Animal Study 7: anti-pyretic action on pyrexial rat caused by injection of fresh yeast; assay type: in vivo; details: rats, 0.15 g/kg gastrogavage
Protocol: as §1, §2, §3
This test was conducted according to the procedure established by Chen Qi, The People's Public Health House, 271 (1993).
The rats were randomly divided into 4 groups, each group weighing 210.0±10.9 g and consisting of 5 male and 5 female rats each. Rats were maintained in the test environmental conditions for 3 days during which their anal temperatures were recorded twice daily. On the fourth day the anal temperature was measured every half hour. Next, a 15% solution of fresh yeast suspension (2 ml/100 g) was injected into the back of each rat. Anal temperature was measured 4 hours later. The rats whose temperatures rose above 1° C. were divided into 4 groups, each group consisting of 10 rats. Each group of rats was fed either water (control), aspirin (0.15 g/kg of body weight), or the composition disclosed in U.S. Pat. No. 5,908,628 (either 1.5 g or 3.0 g/kg of body weight) by means of gastrogavage. Anal temperatures were determined 1, 2, 3 and 4 hours after the gastrogavage.

[7] = tested on: writhing caused by injection of 0.5% acetic acid; experiment: Animal Study 8: writhing reaction caused by injection of 0.5% acetic acid; assay type: in vivo; details: mice, 0.2 g/kg gastrogavage
Protocol: as §1, §2, §3
This test measures the analgesic action of the composition disclosed in U.S. Pat. No. 5,908,628 on writhing caused by injection of 0.5% acetic acid according to the procedure established by Chen Qi. Methodology of Chinese Herbs Pharmacologic Research, The People's Public Health Publishing House, 378 (1993).
The mice are randomly divided into 4 groups, each of which consists of 10 male and 10 female mice, with the total weight of each group being 20.9±1.1 g. […] Pat. No. […] One hour after the gastrogavage, a solution of (I.P.) 0.5% acetic acid (0.2 ml/20 g) was injected into the mice. The number of writhing reactions was counted during the 30 minutes immediately following the injection.

[8] = as little as; cited from earlier work

Compound: CC(=O)Oc1ccccc1C(=O)O [Aspirin, acetylsalicylic acid]
- Degree of swelling of Hind Paw, 0.5 hr after injection ([1]; 0.5 hr): 0.08 ± 0.03 mL
- Degree of swelling of Hind Paw, 1 hr after injection ([1]; 1 hr): 0.12 ± 0.03 mL
- Degree of swelling of Hind Paw, 2 hr after injection ([1]; 2 hr): 0.03 ± 0.02 mL
- Degree of swelling of Hind Paw, 3 hr after injection ([1]; 3 hr): 0.01 ± 0.01 mL
- Degree of swelling of Hind Paw, 4 hr after injection ([1]; 4 hr): 0.01 ± 0.0 mL
- Swelling Measurement, 2 h ([2]; 2 h after inflammation): 2.40 ± 1.08 mm
- Swelling Measurement, 4 h ([2]; 4 h after inflammation): 4.40 ± 1.57 mm
- Swelling Measurement, 6 h ([2]; 6 h after inflammation): 5.30 ± 1.34 mm
- Swelling Measurement, 24 h ([2]; 24 h after inflammation): 3.20 ± 0.92 mm
- Swelling Measurement, 48 h ([2]; 48 h after inflammation): 5.01 ± 1.92 mm
- Swelling Measurement, 72 h ([2]; 72 h after inflammation): 5.80 ± 1.75 mm
- Evans blue (densitometry) [3]: 0.231 ± 0.07
- No. of Tubercles ([4]; 0.15 g/kg): 1
- Visual Score ([4]; 0.15 g/kg): 1
- Swelling ([4]; 0.15 g/kg gastrogavage one week after adjuvant injection): 0.0 ± 0.57 mm
- Dry Weight of the granuloma [5]: 10.1 ± 1.6 mg/100 g
- Inhibitory rate % [5]: 17.89%
- Changes in Body Temperature after injection with yeast, 1 hr ([6]; 1 hr after the gastrogavage): 37.9 ± 0.9 °C
- Changes in Body Temperature after injection with yeast, 2 hr ([6]; 2 hr after the gastrogavage): 37.6 ± 0.9 °C
- Changes in Body Temperature after injection with yeast, 3 hr ([6]; 3 hr after the gastrogavage): 37.8 ± 1.0 °C
- Changes in Body Temperature after injection with yeast, 4 hr ([6]; 4 hr after the gastrogavage): 38.3 ± 0.7 °C
- Analgesic Rate (%) [7]: 63.31%
- Writhing Quantity ([7]; 30 minutes following acetic acid injection): 24.4 ± 10.0

Compound: COc1cc2c(c(OC)c1OC)-c1ccc(OC)c(=O)cc1[C@@H](NC(C)=O)CC2 [colchicine]
- smallest amount found to be fatal [8]: 7 mg
